We go through 5 substances from publication PMC2809098, “HH Domain of Alzheimer’s Disease Aβ Provides Structural Basis for Neuronal Binding in PC12 and Mouse Cortical/Hippocampal Neurons” (PLoS ONE, 2010).

No end group written: not given here.

The target in one experiment is T1, immobilized Aβ40 fibrils (Homo sapiens, UniProt P05067).
T1 construct: made in house; host or cells: chemical solid-phase peptide synthesis (CEM Liberty synthesizer)
As to the kind of experiment: Surface plasmon resonance binding to immobilized Aβ40 fibrils. The settings on record: read-out: ka.

The subject of experiment [1] is amyloid plaques in APP, PS1 mouse brain sections. The experiment is described as follows: Labeling of amyloid plaques in brain sections with radioiodinated peptides, emulsion autoradiography. In kind it is binding. The conditions noted are these: 100 pM radioiodinated peptide, 3 hrs, unfixed 15 µm cryosections, 20-month old APP, one day of exposure. As for the experimental part: HPLC-purified ^125I-Aβ40, ^125I-Aβ40 H13G, ^125I-Aβ40 H13R, ^125I-Aβ40 H13,14G or buffer was incubated in vitro with unfixed cryosections (15 µm) of brain from a 20-month old APP, PS1 AD transgenic mouse using the same procedure used previously. The rodent Aβ was not evaluated because the peptide lacks a tyrosine amino acid for radioiodination. Briefly, the sections were incubated for 3 hrs with 100 pM radioiodinated peptide or alone in 250 µl of TBS (50 mM Tris HCl, 138 mM sodium chloride, pH 7.0) containing 0.1% BSA, 0.6 mg/ml magnesium chloride, 0.04 mg/ml bacitracin, 0.002 mg/ml chymostatin, and 0.004 mg/ml leupeptin. After rinsing and air drying overnight at 4°C., the sections were fixed in formalin for 5 min and then underwent immunoperoxidase histochemistry (IH) for amyloid using an anti-Aβ monoclonal mouse antibody (4G8, 1∶1000, Signet Laboratories, Dedham, MA). Next, the sections were dipped in an autoradiographic emulsion (Type NTB-3, Kodak, Rochester, NY) for direct comparison of ^125I-peptide labeling to anti-Aβ IH. The slides were dipped in emulsion, exposed for various durations, and developed according to the instructions. The sections were dehydrated with successive changes of ethanol and xylene and then coverslipped.

T1 sequence (P05067 672-711): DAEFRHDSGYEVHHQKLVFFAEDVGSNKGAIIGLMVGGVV

Take “DAEFGHDSGFEVRHQKLVFFAEDVGSNKGAIIGLMVGGVV [Aβ40 R5G, Y10F, H13R, Aβ1-40 R5G, Y10F, H13R]”: on immobilized Aβ40 fibrils, the kon at 75 µM came to 31 M⁻¹ s⁻¹.
For “^125I-Aβ40 H13,14G: radioiodinated Aβ40 H13,14G”, the “labeling of amyloid plaques” value in experiment [1] is given as “labeled amyloid plaques equally well”.
Regarding ^125I-Aβ40 H13G, in experiment [1], the “labeling of amyloid plaques” value was “labeled amyloid plaques equally well”.
For ^125I-Aβ40 H13R, in experiment [1], the “labeling of amyloid plaques” value was “labeled amyloid plaques equally well”.
Same read-out and setting: with “^125I-Aβ40: radioiodinated Aβ40 [reference compound]” the entry was “labeled amyloid plaques equally well”.
